Data: ChEMBL document CHEMBL1142232, “Inhibition of spinal microglial cathepsin S for the reversal of neuropathic pain” (Proc Natl Acad Sci U S A, 2007)
Activity calls are given as the source filed them. Where a SMILES comes first, the peptide text is derived from it. [ ]: non-standard residue; d: D form. Oic = O=C(O)[C@@H]1C[C@@H]2CCCC[C@@H]2N1; Hyp = O=C(O)[C@@H]1C[C@@H](O)CN1; dTic = O=C(O)[C@H]1Cc2ccccc2CN1; 2Thi = N[C@@H](Cc1cccs1)C(=O)O

How the values were obtained:
Rattus norvegicus [1] = test: Inhibition of rat recombinant cathepsin S-induced hyperalgesia in naive Wistar rat at 50 nmol administered 30 mins before cathepsin S challenge; type: functional, organism-based
Rattus norvegicus [2] = organism: Rattus norvegicus; test: Analgesic activity in Wistar rat partial ligation of sciatic nerve model of neuropathic pain assessed as reversal of allodynia at 30 nmol after 7 days; type: functional, organism-based
Rattus norvegicus [3] = organism: Rattus norvegicus; test: Analgesic activity in Wistar rat partial ligation of sciatic nerve model of neuropathic pain assessed as reversal of allodynia at 30 nmol after 3 to 5 days; type: functional, organism-based
Rattus norvegicus [4] = test: Analgesic activity in intrathecally dosed Wistar rat partial ligation of sciatic nerve neuropathic pain model assessed as attenuation of allodynia at 50 nmol after 14 days; type: functional, organism-based
Rattus norvegicus [5] = test: Analgesic activity in intrathecally dosed Wistar rat partial ligation of sciatic nerve neuropathic pain model assessed as reduction of mechanical hyperalgesia at 10 nmol after 14 days; type: functional, organism-based
Rattus norvegicus [6] = organism: Rattus norvegicus; test: Toxicity in Wistar rat assessed as effect on motor behavior by rotarod test; type: organism-based; settings: in vivo
Rattus norvegicus [7] = organism: Rattus norvegicus; test: Effect on sarcosine-induced hyperalgesia in Wistar rat; type: functional, organism-based
Rattus norvegicus [8] = organism: Rattus norvegicus; test: Effect on NMDA-induced hyperalgesia in Wistar rat; type: functional, organism-based
Rattus norvegicus [9] = test: Antinociceptive activity in intrathecally dosed Wistar rat partial ligation of sciatic nerve 3-day neuropathic pain model assessed as alteration of mechanical allodynia at 50 nmol; type: functional, organism-based
Rattus norvegicus [10] = test: Analgesic activity in intrathecally dosed Wistar rat partial ligation of sciatic nerve neuropathic pain model assessed as attenuation of allodynia at 50 nmol after 7 days; type: functional, organism-based
Rattus norvegicus [11] = test: Analgesic activity in intrathecally dosed Wistar rat partial ligation of sciatic nerve neuropathic pain model assessed as reduction of mechanical hyperalgesia at 50 nmol after 14 days; type: functional, organism-based
Rattus norvegicus [12] = test: Effect on contralateral mechanical thresholds in intrathecally dosed Wistar rat partial ligation of sciatic nerve neuropathic pain model; type: functional, organism-based
Rattus norvegicus [13] = organism: Rattus norvegicus; test: Reduction of microglial activation in Wistar rat partial ligation of sciatic nerve neuropathic pain model at 30 nmol; type: functional, organism-based
Rattus norvegicus [14] = organism: Rattus norvegicus; test: Inhibition of rat recombinant cathepsin S-induced hyperalgesia in Wistar rat at 50 ug; type: functional, organism-based

Row | Structure (SMILES) | Activity (Rattus norvegicus [1]) | Activity (Rattus norvegicus [2]) | Activity (Rattus norvegicus [3]) | Activity (Rattus norvegicus [4]) | Activity (Rattus norvegicus [5]) | Activity (Rattus norvegicus [6]) | Activity (Rattus norvegicus [7]) | Activity (Rattus norvegicus [8]) | Activity (Rattus norvegicus [9]) | Activity (Rattus norvegicus [10]) | Activity (Rattus norvegicus [11]) | Activity (Rattus norvegicus [12]) | Activity (Rattus norvegicus [13]) | Activity (Rattus norvegicus [14])
1 | CC(C)C[C@@H](NC(=O)N1CCOCC1)C(=O)N[C@@H](/C=C/S(=O)(=O)c1ccccc1)CCc1ccccc1 | inactive | Active | inactive | Active | Active | Non-toxic | inactive | inactive | inactive | Active | Active | inactive | Active | –
2 | N=C(N)NCCC[C@@H](N)C(=O)N[C@@H](CCCNC(=N)N)C(=O)N1CCC[C@H]1C(=O)N1C[C@H](O)C[C@H]1C(=O)NCC(=O)N[C@@H](Cc1cccs1)C(=O)N[C@@H](CO)C(=O)N1Cc2ccccc2C[C@@H]1C(=O)N1[C@H](C(=O)N[C@@H](CCCNC(=N)N)C(=O)O)C[C@@H]2CCCC[C@@H]21 | inactive | – | – | – | – | – | – | – | – | – | – | – | – | inactive
3 | N=C(N)NCCC[C@@H](N)C(=O)N[C@@H](CCCNC(=N)N)C(=O)N1CCC[C@H]1C(=O)N1C[C@H](O)C[C@H]1C(=O)NCC(=O)N[C@@H](Cc1cccs1)C(=O)N[C@@H](CO)C(=O)N1Cc2ccccc2C[C@@H]1C(=O)N1[C@H](C(=O)O)C[C@@H]2CCCC[C@@H]21 (H-[dR]RP[Hyp]G[2Thi]S[dTic][Oic]-OH) | inactive | – | – | – | – | – | – | – | – | – | – | – | – | inactive
